Tested on: 5′-capped RNA transcript (SEQ ID NO:1)
Experiment: Cleavage of 3′-end-labeled, 5′-capped RNA by Eu[THED]^3+ (single strand or hybridized to complementary 18-mer DNA oligomer)
Assay type: biochemical
Settings: 1 mM Eu[THED]^3+
Method: In particular, the ability of Eu[THED]^3+ to hydrolyze 5′-capped RNA was established using a 3′-radiolabeled, 5′-capped RNA transcript.
A target oligonucleotide transcript having the following sequence was used (SEQ ID NO:1):
5′-capped RNA was made from the above amplicon using a T7 MEGAshortscript™ transcription kit (Ambion). 5′-capped transcripts were synthesized in a 20 μL reaction volume containing transcription buffer, T7 RNA polymerase, 7.5 mM rNTPs (except rGTP), 1.9 mM rGTP, 7.5 mM ^7MeGpppG and 200 nM DNA amplicon template. For synthesis of uncapped RNA, the capping dinucleotide was omitted from the reaction and rGTP concentration was increased to 7.5 mM. Reaction mixtures were incubated four hours at 37° C. After the transcription reaction was complete, template DNA was digested with 1 U DNase for 15 minutes at 37° C. Transcripts were purified from unincorporated nucleotides and truncated message by PAGE. The transcripts were visualized by UV back shadowing, and the RNA in the excised gel bands was purified using an RNaid™ kit (Bio 101) which is designed specifically for purification of RNA from polyacrylamide gels. As expected, the product of the 5′-capped RNA reaction contained a band that ran one base slower than the uncapped transcript on a 15% gel.
Transcripts were 3′ end-labeled with ^32p cordycepin triphosphate using terminal transferase. This enzyme prefers DNA as a substrate, but limited labeling of RNA can be achieved with the use of Co^++. As expected, 3′-end-labeling occurred, but the extent of labeling was low.
After preparing 3′-end-labeled, 5′-capped RNA, the ability of Eu[THED]^3+ to cleave (or “decapitate”) the cap structure of the RNA was tested. The reaction conditions were as follows: 1 mM Eu[THED]^3+, 75 μM capped RNA target (˜3 mM with respect to phosphate bonds), 20 mM Tris-HCl, pH 7.0, 100 mM NaCl and 0.2% SDS. A second set of samples further contained 100 μM of an 18-mer DNA oligomer which was complementary to the sequence immediately adjacent to the 5′-cap. […]

[1] = Hybrid (100 μM 18-mer DNA), time 0 min
[2] = Hybrid (100 μM 18-mer DNA), time 15 min
[3] = Hybrid (100 μM 18-mer DNA), time 30 min
[4] = Hybrid (100 μM 18-mer DNA), time 60 min
[5] = Hybrid (100 μM 18-mer DNA), time 120 min
[6] = Hybrid (100 μM 18-mer DNA), time 180 min

europium (III) complex of 1,4,7,10-tetrakis (2-hydroxyethyl)-1,4,7,10-tetraazacyclododecane [Eu[THED]]
Capped RNA counts/area [1]: 3975 counts/area | Decapitated RNA counts/area [1]: 1031 counts/area | Capped RNA counts/area [2]: 4073 counts/area | Decapitated RNA counts/area [2]: 923 counts/area | Capped RNA counts/area [3]: 4070 counts/area | Decapitated RNA counts/area [3]: 1073 counts/area | Capped RNA counts/area [4]: 3315 counts/area | Decapitated RNA counts/area [4]: 1583 counts/area | Capped RNA counts/area [5]: 3509 counts/area | Decapitated RNA counts/area [5]: 1946 counts/area | Capped RNA counts/area [6]: 2658 counts/area | Decapitated RNA counts/area [6]: 1934 counts/area | backbone cleavage of RNA (either data set (ssRNA and hybrid), 75 μM capped RNA): no evidence of backbone cleavage | Capped RNA counts/area (ssRNA, time 0 min): 3266 counts/area | Decapitated RNA counts/area (ssRNA, time 0 min): 1130 counts/area | Capped RNA counts/area (ssRNA, time 30 min): 3481 counts/area | Decapitated RNA counts/area (ssRNA, time 30 min): 1736 counts/area | Capped RNA counts/area (ssRNA, time 120 min): 2232 counts/area | Decapitated RNA counts/area (ssRNA, time 120 min): 2195 counts/area | Capped RNA counts/area (ssRNA, time 180 min): 1982 counts/area | Decapitated RNA counts/area (ssRNA, time 180 min): 1949 counts/area

Reference: patent US6380169B1, “Metal complex containing oligonucleoside cleavage compounds and therapies” (ISIS Pharmaceuticals, Inc., priority 1994, dated 2002)
